Holding throughout (test): microbe, parasite or virus in culture
In experiment [1] the test system is Influenza B virus. To be noted: Ned/537/05, MDCK, 72 h.
In experiment [2] the test system is Influenza A virus. To be noted: MDCK, 72 h.
In experiment [3] the test system is Influenza B virus. The conditions noted are these: Ned/537/05, MDCK, 72 h. This is another data set of the same source.
In experiment [4] the test system is Influenza A virus. To be noted: MDCK, 72 h. This is another data set of the same source.

A word on the EC50: it is the concentration giving half of the maximal effect. A higher EC50 goes with weaker potency. As to `NC(=O)c1nccnc1O`, the EC50 in the experiment on Influenza B virus [1], with Influenza A virus [2], in the experiment with Influenza B virus [3] and in the experiment on Influenza A virus [4] was more than 250 µM in each case.

`CCCCCCCCCC(=O)Oc1ccc(COP(=O)(OCc2ccc(OC(=O)CCCCCCCCC)cc2)OP(=O)(O)OC[C@H]2O[C@@H](n3ccnc(C(N)=O)c3=O)[C@H](O)[C@@H]2O)cc1.CCN(CC)CC`: the EC50 with Influenza B virus [1] turned out to be 0.39 µM; with Influenza A virus [2], 0.97 µM; with Influenza B virus [3] it was 0.55 µM; with Influenza A virus [4], 1.3 µM.

Turning to `CC(=O)O[C@@H]1[C@H](OC(C)=O)[C@@H](COP2(=O)OCc3cccc(C)c3O2)O[C@H]1n1ccnc(C(N)=O)c1=O` (stereo partly specified), the EC50 in the experiment with Influenza B virus [1] was 177 µM; with Influenza A virus [2] it was more than 400 µM; with Influenza B virus [3] it was more than 400 µM; in the experiment with Influenza A virus [4], more than 400 µM.

On to `CCCCCCCCCCCCCCC(=O)Oc1ccc(COP(=O)(OCc2ccc(OC(=O)CCCC)cc2)OP(=O)(O)OC[C@H]2O[C@@H](n3ccnc(C(N)=O)c3=O)[C@H](O)[C@@H]2O)cc1.CCN(CC)CC` (stereo partly specified), for which the concentration giving a half-maximal response (EC50) turned out to be 0.53 µM in the experiment with Influenza B virus [1], 1.4 µM in the experiment on Influenza A virus [2], 0.66 µM in the experiment with Influenza B virus [3] and 1.5 µM in the experiment on Influenza A virus [4].

Regarding `NC(=O)c1ncn([C@@H]2O[C@H](CO)[C@@H](O)[C@H]2O)n1` [RIBAVIRIN], the 50% effective concentration (EC50) with Influenza B virus [1] was determined as 1.5 µM; in the experiment on Influenza A virus [2] it was 5.8 µM; in the experiment with Influenza A virus [4], 5 µM.

With `CCCCCCCCCCCCCCC(=O)Oc1ccc(COP(=O)(OCc2ccc(OC(=O)CCCC)cc2)OP(=O)(O)OC[C@H]2O[C@@H](n3cc(F)nc(C(N)=O)c3=O)[C@H](O)[C@@H]2O)cc1.CCN(CC)CC` (stereo partly specified), the EC50 turned out to be 2.8 µM with Influenza B virus [1], 8.8 µM with Influenza A virus [2], 3.4 µM with Influenza B virus [3] and 6.6 µM with Influenza A virus [4].

Consider `CCCCCCCCCCCCCCC(=O)Oc1ccc(COP(=O)(OCc2ccc(OC(=O)CCCC)cc2)OP(=O)(O)OP(=O)(O)OC[C@H]2O[C@@H](n3ccnc(C(N)=O)c3=O)[C@H](O)[C@@H]2O)cc1.CCN(CC)CC.CCN(CC)CC` (stereo partly specified), for which the 50% effective concentration (EC50) came to 1.5 µM in the experiment with Influenza B virus [1], 5.4 µM with Influenza A virus [2], 2.6 µM with Influenza B virus [3] and 5.6 µM in the experiment on Influenza A virus [4].

Turning to `NC(=O)c1nc(Br)cn([C@@H]2O[C@H](CO)[C@@H](O)[C@H]2O)c1=O`, the half-maximal effective concentration (EC50) with Influenza B virus [1] is 170 µM; in the experiment on Influenza A virus [2], more than 250 µM; in the experiment with Influenza B virus [3], more than 250 µM; in the experiment on Influenza A virus [4], more than 250 µM.

As for `NC(=O)c1nc(F)cnc1O`, the EC50 in the experiment on Influenza B virus [1], in the experiment with Influenza A virus [2], with Influenza B virus [3] and in the experiment on Influenza A virus [4] was more than 250 µM in each case.

Take `NC(=O)c1nccn([C@@H]2O[C@H](CO)[C@@H](O)[C@H]2O)c1=O`: the half-maximal effective concentration (EC50) in the experiment with Influenza B virus [1] stood at 19 µM; with Influenza A virus [2] it was 51 µM; in the experiment on Influenza B virus [3] it was 20 µM; in the experiment on Influenza A virus [4], 53 µM.

In the case of `Cc1cccc2c1OP(=O)(OC[C@H]1O[C@@H](n3ccnc(C(N)=O)c3=O)[C@H](O)[C@@H]1O)OC2` (stereo partly specified), the half-maximal effective concentration (EC50) with Influenza B virus [1] was determined as 106 µM; in the experiment on Influenza A virus [2] it was 368 µM; in the experiment on Influenza B virus [3] it was 200 µM; in the experiment with Influenza A virus [4] it was 256 µM.

For the compound `NC(=O)c1nc(Br)cnc1O`, the half-maximal effective concentration (EC50) is 63 µM in the experiment on Influenza B virus [1], more than 250 µM in the experiment with Influenza A virus [2], more than 250 µM in the experiment with Influenza B virus [3] and more than 250 µM with Influenza A virus [4].

With `CCCCCCCCCC(=O)Oc1ccc(COP(=O)(OCc2ccc(OC(=O)CCCCCCCCC)cc2)OP(=O)(O)OP(=O)(O)OC[C@H]2O[C@@H](n3ccnc(C(N)=O)c3=O)[C@H](O)[C@@H]2O)cc1.CCN(CC)CC.CCN(CC)CC`, the concentration giving a half-maximal response (EC50) with Influenza B virus [1] came out at 1 µM; in the experiment with Influenza A virus [2] it was 4.5 µM; in the experiment on Influenza B virus [3] it was 1.9 µM; in the experiment on Influenza A virus [4] it was 2.6 µM.

These data come from ChEMBL document CHEMBL4130627, “Prodrugs of the Phosphoribosylated Forms of Hydroxypyrazinecarboxamide Pseudobase T-705 and Its De-Fluoro Analogue T-1105 as Potent Influenza Virus Inhibitors” (J Med Chem, 2018).
